Measured values: ChEMBL document CHEMBL3044722, “Potent enantioselective auxin: indole-3-succinic acid” (2002)

Tests used:
Type in all cases: functional
Fuchsia [1] = assay: Induction of root growth in swingtime Fuchsia hybrida at 10^-8 M after 7 to 34 days relative to indole-3-butyric acid
Fuchsia [2] = assay: Induction of root growth in varigated Fuchsia hybrida at 10^-8 M after 7 to 34 days relative to indole-3-butyric acid
Fuchsia [3] = assay: Induction of root growth in varigated Fuchsia hybrida at 10^-7 M after 7 to 34 days relative to indole-3-butyric acid
Fuchsia [4] = assay: Induction of root growth in swingtime Fuchsia hybrida at 10^-7 M after 7 to 34 days relative to indole-3-butyric acid

SMILES	Ratio (Fuchsia [1])	Ratio (Fuchsia [2])	Ratio (Fuchsia [3])	Ratio (Fuchsia [4])
O=C(O)C[C@H](C(=O)O)c1c[nH]c2ccccc12	4.8	4.6	3.8	5.7
O=C(O)CC(C(=O)O)c1c[nH]c2ccccc12 (racemic)	–	–	–	7
O=C(O)Cc1c[nH]c2ccccc12 [INDOLE-3-ACETIC ACID]	–	–	0	0
O=C(O)C[C@@H](C(=O)O)c1c[nH]c2ccccc12	7.1	4.4	0.7	5.6
